From patent publication US20190119284A1, “ErbB Inhibitors and Uses Thereof” (The Regents of the University of California, priority 2016, published 2019)
Where two headings read alike, the source gives them in different places.

How the values were obtained:
[1] = biological target: T1, 2YF-YVMA/3wt + NRG Ba/F3 cells (Homo sapiens, UniProt P04626, DUP772-775/Y1005F/Y1023F/Y1112F/Y1127F/Y1139F/Y1196F/Y1221F/Y1222F/Y1248F, cells depend on it); assay: Ba/F3 proliferation assay, 2YF-YVMA/3wt + NRG; assay type: cell-based
T1 construct: reported HER2 oncogenic mutants in the HER2YF construct
Description: For the 2YF/3wt cells, the parental cells were first transduced with HER3 according to the protocol above and were then spun down at 500×g for 5 min and re-suspended in media supplemented with 10 ng/mL IL-3 and 3 μg/mL puromycin (Invitrogen). Cells were maintained in these conditions for seven days, passaging as required. After seven days the cells were spun down, washed with fresh media, and then used for a subsequent round of transduction according to the protocol above with HER2YF virus. […] The cells were maintained in these conditions for seven days, passaging as required. After seven days the cells were spun down, washed with fresh media, and then suspended in media supplemented with 10 ng/mL of NRG. Cells were maintained in these conditions for seven days to select for a NRG dependent population of 2YF/3wt Ba/F3 cells that were then maintained as described above. The same protocol was used for the 2YF-L755S/3wt, 2YF-YVMA/3wt, and 2YF-VC/3wt cell lines using the indicated constructs.
Proliferation Assays. […] The following day media was changed to fresh media that contained either DMSO or the indicated concentration of drug plus NRG (50 ng/mL final concentration) as indicated. […] For all normalized assays, proliferation was normalized to the DMSO control condition. […]

[2] = biological target: 2YF/3wt + NRG Ba/F3 cells (HER2YF/HER3wt) (Homo sapiens, UniProt P04626, Y1005F/Y1023F/Y1112F/Y1127F/Y1139F/Y1196F/Y1221F/Y1222F/Y1248F, cells depend on it); assay: Ba/F3 proliferation assay, 2YF/3wt + NRG; assay type: cell-based
In short: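 Ba/F3 cells stably expressing HER3 and HER2 with 9 C-terminal Tyr→Phe mutations, selected for NRG dependence after IL-3 withdrawal. Cells were given DMSO or compound plus NRG (50 ng/mL final); proliferation normalized to DMSO, fit by log(inhibitor) vs response with variable slope.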

[3] = biological target: MAPKAPK-2 (Homo sapiens, UniProt P49137); assay: Nanosyn in vitro kinase profiling: MAPKAPK-2; assay type: biochemical; conditions: for inhibition at 1 µM: compound at 1 μM
Description: (§1) This was confirmed by in vitro profiling against a panel of kinases, with compound 2 only showing potent inhibition of EGFR and Ab1 (Table 2).
(§2) In vitro Kinome Screen. In vitro profiling of compound 2 at 100 nM was conducted by Nanosyn.

[4] = biological target: JNK2 (Homo sapiens, UniProt P45984); assay: Nanosyn in vitro kinase profiling: JNK2; assay type: biochemical; conditions: for inhibition at 1 µM: compound at 1 μM
Description: as §1, §2

[5] = biological target: PAK2 (Homo sapiens, UniProt Q13177); assay: Nanosyn in vitro kinase profiling: PAK2; assay type: biochemical; conditions: for inhibition at 1 µM: compound at 1 μM
Description: as §1, §2

[6] = biological target: LCK (Homo sapiens, UniProt P06239); assay: Nanosyn in vitro kinase profiling: LCK; assay type: biochemical; conditions: for inhibition at 1 µM: compound at 1 μM
Description: as §1, §2

[7] = biological target: KDR (Homo sapiens, UniProt P35968); assay: Nanosyn in vitro kinase profiling: KDR; assay type: biochemical; conditions: for inhibition at 1 µM: compound at 1 μM
Description: as §1, §2

[8] = biological target: EPH-A2 (Homo sapiens, UniProt P29317); assay: Nanosyn in vitro kinase profiling: EPH-A2; assay type: biochemical; conditions: for inhibition at 1 µM: compound at 1 μM
Description: as §1, §2

[9] = biological target: P38-ALPHA (Homo sapiens, UniProt Q16539); assay: Nanosyn in vitro kinase profiling: P38-ALPHA; assay type: biochemical; conditions: for inhibition at 1 µM: compound at 1 μM
Description: as §1, §2

[10] = biological target: MAP4K4 (Homo sapiens, UniProt O95819); assay: Nanosyn in vitro kinase profiling: MAP4K4; assay type: biochemical; conditions: for inhibition at 1 µM: compound at 1 μM
Description: as §1, §2

[11] = biological target: ABL1 (Homo sapiens, UniProt P00519); assay: Nanosyn in vitro kinase profiling: ABL1; assay type: biochemical; conditions: for inhibition at 1 µM: compound at 1 μM
Description: as §1, §2

[12] = biological target: T2, PRKD2 (Homo sapiens, UniProt Q9BZL6); assay: Nanosyn in vitro kinase profiling: PRKD2; assay type: biochemical; conditions: for inhibition at 1 µM: compound at 1 μM
T2 sequence (Q9BZL6 1-878): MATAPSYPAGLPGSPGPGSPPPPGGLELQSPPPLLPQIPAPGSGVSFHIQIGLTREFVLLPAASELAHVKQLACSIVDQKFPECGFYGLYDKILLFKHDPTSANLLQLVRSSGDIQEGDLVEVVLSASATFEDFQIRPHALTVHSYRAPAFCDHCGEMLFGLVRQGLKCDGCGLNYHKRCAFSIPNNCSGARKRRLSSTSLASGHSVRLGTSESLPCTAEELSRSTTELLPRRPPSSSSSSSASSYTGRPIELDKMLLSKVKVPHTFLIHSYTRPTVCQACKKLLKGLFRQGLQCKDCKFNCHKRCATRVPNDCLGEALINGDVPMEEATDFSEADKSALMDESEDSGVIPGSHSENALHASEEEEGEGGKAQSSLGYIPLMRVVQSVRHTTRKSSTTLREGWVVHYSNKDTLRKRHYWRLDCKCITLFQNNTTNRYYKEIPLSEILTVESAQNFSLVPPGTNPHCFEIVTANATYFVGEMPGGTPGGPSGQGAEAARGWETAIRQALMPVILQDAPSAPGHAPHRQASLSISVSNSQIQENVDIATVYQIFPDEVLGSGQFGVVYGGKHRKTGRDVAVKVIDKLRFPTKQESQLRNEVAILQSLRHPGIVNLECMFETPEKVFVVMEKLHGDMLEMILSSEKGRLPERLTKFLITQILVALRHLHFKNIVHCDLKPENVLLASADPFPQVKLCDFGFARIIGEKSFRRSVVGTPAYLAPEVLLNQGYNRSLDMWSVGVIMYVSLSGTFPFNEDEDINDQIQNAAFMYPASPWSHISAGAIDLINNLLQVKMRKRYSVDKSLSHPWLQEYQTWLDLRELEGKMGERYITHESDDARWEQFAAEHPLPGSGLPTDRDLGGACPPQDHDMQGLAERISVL
Description: as §1, §2

JNK2, sequence (P45984 whole entry, species assumed): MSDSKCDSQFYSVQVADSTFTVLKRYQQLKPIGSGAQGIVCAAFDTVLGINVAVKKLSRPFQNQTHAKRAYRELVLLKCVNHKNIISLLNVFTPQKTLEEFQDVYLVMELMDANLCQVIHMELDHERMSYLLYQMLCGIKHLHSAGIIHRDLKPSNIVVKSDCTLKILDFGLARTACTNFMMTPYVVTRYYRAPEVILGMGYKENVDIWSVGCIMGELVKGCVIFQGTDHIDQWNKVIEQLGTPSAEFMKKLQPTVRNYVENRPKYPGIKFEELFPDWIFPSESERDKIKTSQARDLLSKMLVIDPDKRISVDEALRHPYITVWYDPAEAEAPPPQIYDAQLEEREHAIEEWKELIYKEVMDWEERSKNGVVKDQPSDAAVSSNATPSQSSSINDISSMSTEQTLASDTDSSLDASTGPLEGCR
MAP4K4, sequence (O95819 whole entry): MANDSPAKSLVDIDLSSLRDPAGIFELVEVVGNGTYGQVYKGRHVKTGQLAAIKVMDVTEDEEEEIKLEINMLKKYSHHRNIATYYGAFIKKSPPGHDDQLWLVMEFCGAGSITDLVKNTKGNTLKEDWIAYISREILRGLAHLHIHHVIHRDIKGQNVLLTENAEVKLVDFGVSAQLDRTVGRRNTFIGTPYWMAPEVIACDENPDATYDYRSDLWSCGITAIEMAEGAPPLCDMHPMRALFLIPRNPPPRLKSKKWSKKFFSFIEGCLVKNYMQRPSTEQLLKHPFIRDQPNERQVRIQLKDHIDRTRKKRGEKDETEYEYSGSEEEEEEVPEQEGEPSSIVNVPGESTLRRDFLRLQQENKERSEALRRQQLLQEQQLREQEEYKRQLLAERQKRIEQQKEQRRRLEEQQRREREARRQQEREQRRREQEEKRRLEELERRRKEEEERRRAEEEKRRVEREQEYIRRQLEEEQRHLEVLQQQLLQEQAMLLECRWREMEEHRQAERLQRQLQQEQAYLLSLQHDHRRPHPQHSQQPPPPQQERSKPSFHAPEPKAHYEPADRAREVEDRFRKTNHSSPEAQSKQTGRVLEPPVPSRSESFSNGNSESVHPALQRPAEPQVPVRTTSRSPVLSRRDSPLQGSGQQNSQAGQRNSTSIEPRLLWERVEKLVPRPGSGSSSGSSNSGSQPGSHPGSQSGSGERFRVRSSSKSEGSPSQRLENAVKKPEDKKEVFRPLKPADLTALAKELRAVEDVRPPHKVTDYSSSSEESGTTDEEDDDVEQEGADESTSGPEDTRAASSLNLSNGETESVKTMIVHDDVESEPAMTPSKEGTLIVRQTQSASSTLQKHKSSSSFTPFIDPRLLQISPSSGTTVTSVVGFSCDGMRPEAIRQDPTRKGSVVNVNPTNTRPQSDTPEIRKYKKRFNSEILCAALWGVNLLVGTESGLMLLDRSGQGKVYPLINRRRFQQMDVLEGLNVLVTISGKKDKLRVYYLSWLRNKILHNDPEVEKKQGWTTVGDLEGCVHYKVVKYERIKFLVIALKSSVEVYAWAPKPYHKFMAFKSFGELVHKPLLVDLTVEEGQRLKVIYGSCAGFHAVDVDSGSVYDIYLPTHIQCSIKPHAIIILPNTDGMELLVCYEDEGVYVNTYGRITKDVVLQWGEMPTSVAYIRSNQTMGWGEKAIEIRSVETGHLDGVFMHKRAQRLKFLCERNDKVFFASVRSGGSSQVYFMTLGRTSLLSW
MAPKAPK-2, sequence (P49137 whole entry, species assumed): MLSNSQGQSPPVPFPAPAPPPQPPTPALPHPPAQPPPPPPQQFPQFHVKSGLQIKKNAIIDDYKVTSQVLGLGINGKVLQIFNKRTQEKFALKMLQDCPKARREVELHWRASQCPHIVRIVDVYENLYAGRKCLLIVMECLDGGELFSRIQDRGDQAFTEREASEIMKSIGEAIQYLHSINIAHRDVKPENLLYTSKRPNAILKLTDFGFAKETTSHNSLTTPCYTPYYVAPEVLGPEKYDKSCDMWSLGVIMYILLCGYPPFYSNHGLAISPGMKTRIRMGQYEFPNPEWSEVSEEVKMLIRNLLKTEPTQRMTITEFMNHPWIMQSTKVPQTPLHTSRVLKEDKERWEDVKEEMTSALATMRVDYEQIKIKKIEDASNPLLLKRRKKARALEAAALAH
ABL1, sequence (P00519 whole entry): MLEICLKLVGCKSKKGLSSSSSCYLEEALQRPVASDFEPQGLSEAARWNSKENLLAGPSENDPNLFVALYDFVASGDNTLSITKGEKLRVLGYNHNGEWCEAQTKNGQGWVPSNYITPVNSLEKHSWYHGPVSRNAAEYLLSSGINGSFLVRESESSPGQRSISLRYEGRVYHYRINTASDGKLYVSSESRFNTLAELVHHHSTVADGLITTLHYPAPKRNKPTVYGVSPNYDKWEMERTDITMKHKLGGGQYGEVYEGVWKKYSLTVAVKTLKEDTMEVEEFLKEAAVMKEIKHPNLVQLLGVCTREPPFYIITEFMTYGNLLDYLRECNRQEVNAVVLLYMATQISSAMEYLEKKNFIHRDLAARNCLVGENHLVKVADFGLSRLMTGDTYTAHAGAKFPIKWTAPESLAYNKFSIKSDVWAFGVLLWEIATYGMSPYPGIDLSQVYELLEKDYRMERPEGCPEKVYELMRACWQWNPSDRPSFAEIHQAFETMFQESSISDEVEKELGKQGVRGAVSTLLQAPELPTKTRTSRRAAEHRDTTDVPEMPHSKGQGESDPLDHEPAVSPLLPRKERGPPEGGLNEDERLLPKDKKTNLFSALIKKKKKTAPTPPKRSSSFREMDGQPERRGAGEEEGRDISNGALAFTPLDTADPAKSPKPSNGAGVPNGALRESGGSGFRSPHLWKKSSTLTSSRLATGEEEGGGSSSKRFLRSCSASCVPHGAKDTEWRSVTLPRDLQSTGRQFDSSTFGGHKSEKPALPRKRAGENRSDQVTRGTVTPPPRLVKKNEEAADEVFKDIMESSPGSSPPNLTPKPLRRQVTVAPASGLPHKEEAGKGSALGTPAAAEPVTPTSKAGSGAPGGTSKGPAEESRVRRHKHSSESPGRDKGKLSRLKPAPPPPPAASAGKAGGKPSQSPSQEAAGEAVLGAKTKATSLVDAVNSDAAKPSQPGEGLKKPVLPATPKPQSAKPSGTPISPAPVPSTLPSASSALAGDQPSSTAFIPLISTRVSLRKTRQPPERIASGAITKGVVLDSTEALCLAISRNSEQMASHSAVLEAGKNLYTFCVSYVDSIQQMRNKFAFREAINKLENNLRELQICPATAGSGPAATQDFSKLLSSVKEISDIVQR
LCK, sequence (P06239 whole entry): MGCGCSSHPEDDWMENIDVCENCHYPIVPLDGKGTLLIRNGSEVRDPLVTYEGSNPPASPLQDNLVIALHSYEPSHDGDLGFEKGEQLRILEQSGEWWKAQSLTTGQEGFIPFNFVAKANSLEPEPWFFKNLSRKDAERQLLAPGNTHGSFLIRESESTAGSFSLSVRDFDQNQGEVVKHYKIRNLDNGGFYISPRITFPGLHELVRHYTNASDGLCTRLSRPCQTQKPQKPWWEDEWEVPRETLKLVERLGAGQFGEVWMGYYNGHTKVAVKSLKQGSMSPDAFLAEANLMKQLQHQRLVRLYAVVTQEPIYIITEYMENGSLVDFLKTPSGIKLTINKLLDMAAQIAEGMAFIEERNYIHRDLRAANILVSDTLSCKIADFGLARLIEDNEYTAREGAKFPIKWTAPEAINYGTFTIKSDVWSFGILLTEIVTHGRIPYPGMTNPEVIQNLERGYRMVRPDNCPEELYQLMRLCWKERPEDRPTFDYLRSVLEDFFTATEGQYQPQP
P38-ALPHA, sequence (Q16539 whole entry): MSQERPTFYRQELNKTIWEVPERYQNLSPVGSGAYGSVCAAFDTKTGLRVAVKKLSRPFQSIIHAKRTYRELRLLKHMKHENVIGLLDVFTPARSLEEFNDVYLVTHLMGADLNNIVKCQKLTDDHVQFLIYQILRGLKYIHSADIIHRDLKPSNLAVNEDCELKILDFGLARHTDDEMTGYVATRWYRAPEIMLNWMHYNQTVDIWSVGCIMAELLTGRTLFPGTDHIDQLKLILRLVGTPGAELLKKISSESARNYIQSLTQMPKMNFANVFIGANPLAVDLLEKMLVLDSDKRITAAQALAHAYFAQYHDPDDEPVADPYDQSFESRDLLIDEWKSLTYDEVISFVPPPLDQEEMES
PAK2, sequence (Q13177 whole entry, species assumed): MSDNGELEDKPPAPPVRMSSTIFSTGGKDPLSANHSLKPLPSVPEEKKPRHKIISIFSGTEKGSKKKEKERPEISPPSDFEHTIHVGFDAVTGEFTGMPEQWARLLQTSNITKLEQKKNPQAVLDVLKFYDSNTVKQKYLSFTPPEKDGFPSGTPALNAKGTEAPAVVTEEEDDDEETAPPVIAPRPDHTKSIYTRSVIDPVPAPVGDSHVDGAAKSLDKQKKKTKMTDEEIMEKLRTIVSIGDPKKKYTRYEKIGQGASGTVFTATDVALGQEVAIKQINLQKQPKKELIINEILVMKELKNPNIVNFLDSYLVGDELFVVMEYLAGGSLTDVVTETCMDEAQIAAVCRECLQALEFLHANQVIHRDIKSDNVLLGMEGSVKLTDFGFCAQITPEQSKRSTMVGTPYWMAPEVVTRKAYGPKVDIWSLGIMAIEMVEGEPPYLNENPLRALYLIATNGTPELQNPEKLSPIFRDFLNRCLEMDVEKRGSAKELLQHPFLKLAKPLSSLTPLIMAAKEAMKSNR

Row | inhibition at 1 µM [3] | inhibition at 1 µM [4] | inhibition at 1 µM [5] | inhibition at 1 µM [6] | inhibition at 1 µM [7] | inhibition at 1 µM [8] | inhibition at 1 µM [9] | inhibition at 1 µM [10] | inhibition at 1 µM [11] | inhibition at 1 µM [12] | SMILES | also measured
1 | – | – | – | – | – | – | – | – | – | – | CS(=O)(=O)CCNCc1ccc(-c2ccc3ncnc(Nc4ccc(OCc5cccc(F)c5)c(Cl)c4)c3c2)o1 [lapatinib] | GI50 ([1]; read-out: IC50, 2YF-YVMA/3wt + NRG; Table 4; ± S.D., n = 2): > 10000 nM; GI50 ([2]; read-out: IC50, 2YF/3wt + NRG; Table 4; ± S.D., n = 3; 48 h Cell Titer Glo): 63.6 ± 12.5 nM
2 | -6% | 7% | 3% | 98% | 74% | 28% | 2% | 100% | 98% | 28% | COc1ccc(-c2ccoc2)cc1Nc1ncnc2[nH]cc(-c3cc[nH]n3)c12 [compound 3, N-(5-(furan-3-yl)-2-methoxyphenyl)-5-(1H-pyrazol-3-yl)-7H-pyrrolo[2,3-d]pyrimidin-4-amine] | GI50 ([1]; Table 4; ± S.D., n = 2; read-out: IC50, 2YF-YVMA/3wt + NRG): 11.4 ± 0.1 nM; GI50 ([2]; Table 4; ± S.D., n = 3; 48 h Cell Titer Glo; read-out: IC50, 2YF/3wt + NRG): 6.8 ± 0.2 nM
3 | 0.575% | 6.62% | 1.07% | 93.6% | 71.3% | 21% | 12.9% | 78.7% | 97.2% | 26.6% | COc1ccc(-c2ccco2)cc1Nc1ncnc2[nH]nc(-c3ccco3)c12 [compound 2, 3-(furan-2-yl)-N-(5-(furan-2-yl)-2-methoxyphenyl)-1H-pyrazolo[3,4-d]pyrimidin-4-amine] | inhibition at 0.1 µM ([3]; compound at 100 nM): 0.12%; inhibition at 0.1 µM ([4]; compound at 100 nM): 1.07%; inhibition at 0.1 µM ([5]; compound at 100 nM): 0.085%; inhibition at 0.1 µM ([6]; compound at 100 nM): 74.2%; inhibition at 0.1 µM ([7]; compound at 100 nM): 27.3%; inhibition at 0.1 µM ([8]; compound at 100 nM): 2.42%; inhibition at 0.1 µM ([9]; compound at 100 nM): 6.61%; inhibition at 0.1 µM ([10]; compound at 100 nM): 36.5%; inhibition at 0.1 µM ([11]; compound at 100 nM): 95.2%; inhibition at 0.1 µM ([12]; compound at 100 nM): 5.46%
